Measurements taken from US20020142327A1, “Expression analysis of smarc nucleic acids and polypeptides useful in the diagnosis and treatment of prostate cancer” (priority 2000, published 2002).

Experiments:
Type in all cases: cell-based, Human
[1] = system: prostate specific antigen (PSA) expression; assay: Affymetrix GeneChip expression analysis of LNCaP cells, PSA; conditions: 10 nM DHT
Protocol: (§1) Human prostatic cancer cell lines LNCaP, DU-145, PC-3, and Tsu-prl were obtained from ATCC. LNCaP cancer cells were maintained in humidified atmosphere of 5% CO2 in air in RPMI 1640 medium supplemented with 10% fetal calf serum (Life Technologies, Inc, Rockville, Md.), 3 mM L-glutamine, 100 μg/ml streptomycin and 100 units/ml penicillin. Other lines were maintained in DMEM containing 3 mM L-glutamine, 100 μg/ml streptomycin, 100 units/ml penicillin, and 10% FCS in humidified atmosphere of 5% CO2. To examine the effects of steroids, cells were cultured in RPMI 1640 medium containing 5% FCS treated with dextran coated charcoal (Hyclone, Logan, Utah) for 24 hs before treatment. Cells were grown in the absence or presence of 10 nM DHT for 0, 2, 4, 6, 12, 24, 48, and 72 hs. They were collected and frozen at each time point. Two hundred μl of medium were collected from each flask for PSA assay.
Total RNA was isolated from LNCaP cells using the Qiagen Rneasy Midi Kit following the manufacturer's recommendations. For polyA (+) selection, the Promega PolyATract kit was used according to manufacturer's procedures. […] The cRNA was purified by SPRI using paramagnetic beads (Bangs Laboratories), and total molar concentration was determined from the absorbance at 260. […]

[2] = system: LNCaP cells; assay: Cell growth assay (MTT) of LNCaP cells treated with DHT
Protocol: as §1
To verify the effect of DHT on the growth of LNCaP cells, cells at 3,000 cells/well were plated in 96-well plates for 24 hs before treatment with DHT. After 72 hs, MTT was added to each well and incubated at 37° C. for four hs. At the end of incubation, the supernatant was removed and 100 μl DMSO was added to each well to dissolve […]. Plates were subsequently read in a plate reader at […].

[3] = system: SMARCD3 expression; assay: Affymetrix GeneChip expression analysis of LNCaP cells, SMARCD3
Protocol: as §1
Total RNA was isolated from LNCaP cells using the Qiagen Rneasy Midi Kit following the manufacturer's recommendations. For polyA (+) selection, the Promega PolyATract kit was used according to manufacturer's procedures. Briefly, LNCaP cells were collected by centrifugation and the RNA isolated using the buffers and recommended procedures from the Qiagen kit. Following RNA extraction, all samples were frozen at −80° C. One microgram of poly A(+) RNA was used as template for synthesis of double-stranded cDNA using the GibcoBRL cDNA synthesis kit, with an oligo dT primer incorporating a T7 RNA polymerase promoter (10 minutes at 70° C. for priming, 65 minutes at 37° C. for first strand synthesis with Superscript II RT, followed by 150 min at 15.8° C. for second strand synthesis with E. coli ligase, E. coli polymerase, and RNAse H). […] The cRNA was purified by SPRI using paramagnetic beads (Bangs Laboratories), and total molar concentration was determined from the absorbance at 260. […]

[4] = system: PSA production; assay: PSA ELISA on medium of LNCaP cells treated with DHT
Protocol: as §1
Quantification of PSA was performed using an ELISA. Briefly, a 96-well Nunc plate was coated with 100 μl of goat anti-PSA (1 μg/ml, Scripps laboratory, San Diego, Calif.) overnight at 4° C. The plate was washed with water three times and incubated with 100 μl of blocking buffer (PBS, 0.05% Tween 20, 1 μM EDTA, 0.25% BSA, and 0.05% NaN3) for 1 h at room temperature. The plate was washed three times with water and incubated with 1:1 mixture of mouse anti-human PSA and Eu-labeled anti-mouse IgG (10 ng/antibody each/well for 1½ hs at RT). The plate was then washed four times with water. 100 μl of Delfia Enhancement Solution (PerkinElmer Wallac Inc (Norton, Ohio) was added to the plate was read using a Victor reader according to the manufacturer's instruction.

C[C@]12CCC(=O)C[C@@H]1CC[C@@H]1[C@@H]2CC[C@]2(C)[C@@H](O)CC[C@@H]12 [DHT]
PSA expression increase relative to control ([1]; 12 hours): 3 fold | PSA expression induction relative to control ([1]; 72 hours): approximately 4 fold | growth effect at the chosen concentration ([2]; 10 nM DHT): robust growth-stimulatory effect | growth of LNCaP cells ([2]; dose response, 72 hs, MTT): stimulated | decrease in SMARCD3 expression levels ([3]; 24 hours post-androgen treatment): 2 fold | decrease in SMARCD3 expression levels ([3]; 48 hours post-treatment): 4 fold | decrease in SMARCD3 expression levels ([3]; 72 hours post-treatment): 6 fold | time at which PSA signal was first detected ([4]; DHT treatment): 12 h | time of maximal PSA level ([4]; DHT treatment): about 48 hs | PSA production ([4]; dose response, ELISA): increased in a dose-dependent manner
